In ChEMBL document CHEMBL1201862, “PubChem BioAssay data set” (2004):
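A five-concentration, 48-hour dose response in 96-well plates underlies each endpoint, interpolated linearly between surrounding concentrations. GI50 is the concentration that inhibits growth by half.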 Activity calls are given as the source filed them. Rule as the data show it: active = GI50 up to about 1.1 µM and inactive = higher.

Experiments:
Assay in all cases: NCI anticancer screen, dose series, 48 h
[1] = system: T47D
[2] = system: EKVX
[3] = system: ACHN
[4] = system: OVCAR-4
[5] = system: HL-60
[6] = system: HOP-92
[7] = system: NCI/ADR-RES
[8] = system: HCT-15
[9] = system: HCC 2998
[10] = system: TK-10
[11] = system: BT-549
[12] = system: RPMI-8226
[13] = system: SNB-75
[14] = system: A549
[15] = system: SR
[16] = system: OVCAR-5
[17] = system: Malme-3M
[18] = system: A498
[19] = system: CCRF-CEM
[20] = system: SF-268
[21] = system: HT-29
[22] = system: UO-31
[23] = system: MCF7
[24] = system: SW-620
[25] = system: OVCAR-3
[26] = system: SF-539
[27] = system: PC-3
[28] = system: COLO 205
[29] = system: LOX IMVI
[30] = system: K562
[31] = system: OVCAR-8
[32] = system: Hs-578T
[33] = system: UACC-257
[34] = system: MDA-MB-435
[35] = system: U-251
[36] = system: IGROV-1
[37] = system: NCI-H460
[38] = system: CAKI-1
[39] = system: RXF 393
[40] = system: KM12
[41] = system: M14
[42] = system: SK-MEL-28
[43] = system: HOP-62
[44] = system: SN12C
[45] = system: MDA-N
[46] = system: SNB-19
[47] = system: SK-MEL-5
[48] = system: NCI-H522
[49] = system: MDA-MB-231
[50] = system: DU-145
[51] = system: SK-MEL-2
[52] = system: NCI-H23
[53] = system: SF-295
[54] = system: NCI-H226
[55] = system: SK-OV-3
[56] = system: HCT-116
[57] = system: 786-0
[58] = system: MOLT-4
[59] = system: UACC-62

COC(=O)/C=C\n1nc(Br)c(=O)[nH]c1=O
GI50 [1]: > 100 µM (inactive) | GI50 [2]: > 100 µM (inactive) | GI50 [3]: > 100 µM (inactive) | GI50 [4]: > 100 µM (inactive) | GI50 [5]: 66.4 µM (inactive) | GI50 [6]: > 100 µM (inactive) | GI50 [7]: > 100 µM (inactive) | GI50 [8]: 85.7 µM | GI50 [9]: > 100 µM (inactive) | GI50 [10]: > 100 µM (inactive) | GI50 [11]: > 100 µM (inactive) | GI50 [12]: > 100 µM (inactive) | GI50 [13]: > 100 µM (inactive) | GI50 [14]: > 100 µM (inactive) | GI50 [15]: > 100 µM (inactive) | GI50 [16]: > 100 µM (inactive) | GI50 [17]: > 100 µM (inactive) | GI50 [18]: > 100 µM (inactive) | GI50 [19]: > 100 µM (inactive) | GI50 [20]: > 100 µM (inactive) | GI50 [21]: > 100 µM (inactive) | GI50 [22]: > 100 µM (inactive) | GI50 [23]: > 100 µM (inactive) | GI50 [24]: > 100 µM (inactive) | GI50 [25]: > 100 µM (inactive) | GI50 [26]: > 100 µM (inactive) | GI50 [27]: > 100 µM (inactive) | GI50 [28]: > 100 µM (inactive) | GI50 [29]: > 100 µM (inactive) | GI50 [30]: > 100 µM (inactive) | GI50 [31]: > 100 µM (inactive) | GI50 [32]: > 100 µM (inactive) | GI50 [33]: > 100 µM (inactive) | GI50 [34]: > 100 µM (inactive) | GI50 [35]: > 100 µM (inactive) | GI50 [36]: > 100 µM (inactive) | GI50 [37]: > 100 µM (inactive) | GI50 [38]: > 100 µM (inactive) | GI50 [39]: 83.9 µM (inactive) | GI50 [40]: > 100 µM (inactive) | GI50 [41]: > 100 µM (inactive) | GI50 [42]: > 100 µM (inactive) | GI50 [43]: > 100 µM (inactive) | GI50 [44]: > 100 µM (inactive) | GI50 [45]: > 100 µM (inactive) | GI50 [46]: > 100 µM (inactive) | GI50 [47]: > 100 µM (inactive) | GI50 [48]: 35.1 µM (inactive) | GI50 [49]: > 100 µM (inactive) | GI50 [50]: > 100 µM (inactive) | GI50 [51]: > 100 µM (inactive) | GI50 [52]: > 100 µM (inactive)

CSC1=N/C(=C\c2ccco2)C(=O)N1CN1CCOCC1
GI50 [1]: 48.1 µM (inactive) | GI50 [2]: > 79.1 µM (inactive) | GI50 [3]: 43 µM (inactive) | GI50 [4]: > 100 µM (inactive) | GI50 [53]: > 100 µM (inactive) | GI50 [54]: 75 µM (inactive) | GI50 [7]: > 61.8 µM (inactive) | GI50 [8]: 33.7 µM | GI50 [9]: 25.7 µM (inactive) | GI50 [10]: > 58.1 µM (inactive) | GI50 [11]: 19.4 µM (inactive) | GI50 [12]: 32.7 µM (inactive) | GI50 [55]: > 100 µM (inactive) | GI50 [13]: > 100 µM (inactive) | GI50 [56]: 29.2 µM (inactive) | GI50 [14]: > 100 µM (inactive) | GI50 [15]: 41.3 µM (inactive) | GI50 [16]: > 100 µM (inactive) | GI50 [17]: > 46.1 µM (inactive) | GI50 [18]: > 60.1 µM (inactive) | GI50 [19]: 30.4 µM (inactive) | GI50 [57]: 48.6 µM (inactive) | GI50 [20]: > 44.4 µM (inactive) | GI50 [21]: 33.6 µM (inactive) | GI50 [22]: > 69.8 µM (inactive) | GI50 [23]: 23 µM (inactive) | GI50 [24]: 31.7 µM (inactive) | GI50 [25]: > 100 µM (inactive) | GI50 [58]: 59.7 µM (inactive) | GI50 [26]: 17.2 µM (inactive) | GI50 [27]: > 93.8 µM (inactive) | GI50 [28]: 38.5 µM (inactive) | GI50 [29]: 30.7 µM (inactive) | GI50 [30]: 42.5 µM (inactive) | GI50 [31]: 58.9 µM (inactive) | GI50 [32]: > 100 µM (inactive) | GI50 [33]: 29.7 µM (inactive) | GI50 [34]: > 62.2 µM (inactive) | GI50 [35]: > 100 µM (inactive) | GI50 [36]: > 61.1 µM (inactive) | GI50 [37]: 13.9 µM (inactive) | GI50 [38]: 32 µM (inactive) | GI50 [39]: 20.4 µM (inactive) | GI50 [40]: > 70.1 µM (inactive) | GI50 [41]: > 92.3 µM (inactive) | GI50 [42]: > 71.6 µM (inactive) | GI50 [43]: > 100 µM (inactive) | GI50 [44]: > 52.8 µM (inactive) | GI50 [45]: > 100 µM (inactive) | GI50 [46]: > 93.1 µM (inactive) | GI50 [47]: 41.1 µM (inactive) | GI50 [48]: > 100 µM (inactive) | GI50 [49]: > 63.1 µM (inactive) | GI50 [50]: 42.3 µM (inactive) | GI50 [59]: 44.6 µM (inactive) | GI50 [51]: > 91.4 µM (inactive) | GI50 [52]: > 100 µM (inactive)
